Data set [1] concerns SH-SY5Y. Briefly: Inhibition of SOC in human SH-SY5Y cells assessed as reduction in thapsigargin-induced Ca2+ influx incubated for 5 mins at 30 uM by FURA-2AM dye based fluorescence assay. The format is cell-based.
Data set [2] is described as follows: Cytotoxicity against human SH-SY5Y cells assessed as reduction in cell viability at 0.1 to 20 uM incubated for 1 hr by MTT assay. The format is cell-based.
Data set [3] can be described thus: Cytotoxicity against human SH-SY5Y cells assessed as reduction in cell viability at 25 uM incubated for 1 hr by MTT assay. It is filed as cell-based. In general terms: Formazan colour is commonly taken as a measure of viable cells.
Data set [4] addresses Sodium channel protein type 8 subunit alpha (Homo sapiens) (UniProt Q9UQD0). Briefly: Effect on human NaV1.6 expressed in HEK293 cells assessed as effect on sodium current by whole cell patch clamp electrophysiology method. The format is cell-based. For orientation: In patch-clamp work, channel activity is measured electrically.
In data set [5] the test system is SH-SY5Y. Kind of data set: Effect on VGSC in human SH-SY5Y cells assessed as effect on total sodium current at 0.1 nM to 10 uM by whole cell patch clamp electrophysiology method. The format is cell-based.
Data set [6] deals with SH-SY5Y. Briefly: Effect on cytosolic Ca2+ level in human SH-SY5Y cells at 10 uM by FURA-2AM dye based fluorescence assay. It is filed as functional, cell-based.
Data set [7] deals with SH-SY5Y. Briefly: Effect on cytosolic Ca2+ level in human SH-SY5Y cells at 10 uM followed by 1 mM Ca2+ addition 5 mins after compound treatment by FURA-2AM dye based fluorescence assay. The format is functional, cell-based.
For data set [8], the system named is SH-SY5Y. Briefly: Inhibition of SOC in human SH-SY5Y cells assessed as reduction in thapsigargin-induced Ca2+ influx incubated for 5 mins by FURA-2AM dye based fluorescence assay. It is filed as cell-based.
Data set [9] has as its system SH-SY5Y. Briefly: Inhibition of SOC in human SH-SY5Y cells assessed as reduction in thapsigargin-induced Ca2+ influx incubated for 5 mins at 5 uM by FURA-2AM dye based fluorescence assay. The format is cell-based.
Data set [10] relates to SH-SY5Y. Briefly: Inhibition of SOC in human SH-SY5Y cells assessed as reduction in thapsigargin-induced Ca2+ influx incubated for 5 mins at 1 uM by FURA-2AM dye based fluorescence assay. The format is cell-based.
Data set [11] concerns SH-SY5Y. Kind of data set: Inhibition of SOC in human SH-SY5Y cells assessed as reduction in thapsigargin-induced Ca2+ influx incubated for 5 mins at 10 uM in presence of 30 uM SKF96365 by FURA-2AM dye based fluorescence assay. It is filed as cell-based.
Data set [12] has as its system SH-SY5Y. Kind of data set: Inhibition of SOC in human SH-SY5Y cells assessed as reduction in thapsigargin-induced Ca2+ influx incubated for 5 mins at 10 uM in presence of 10 uM FCCP by FURA-2AM dye based fluorescence assay. It is filed as cell-based.
The test system of data set [13] is SH-SY5Y. Kind of data set: Induction of mitochondrial membrane potential loss in human SH-SY5Y cells at 10 uM incubated for 10 mins by TMRE dye based assay. The format is functional.
Data set [14] concerns SH-SY5Y. Kind of data set: Modulation of mitochondrial permeability transition pore opening in human SH-SY5Y cells assessed as reduction in calcein fluorescence at 10 uM by calcein-AM dye based confocal laser scanning microscopy. It is filed as functional.
The subject of data set [15] is SH-SY5Y. The settings on record: Homo sapiens, at 10 µM.
Description: Inhibition of SOC in human SH-SY5Y cells assessed as reduction in thapsigargin-induced Ca2+ influx incubated for 5 mins at 10 uM by FURA-2AM dye based fluorescence assay
Data set [16] concerns SH-SY5Y. The following applies: Homo sapiens, at 10 µM. The source holds these as a separate data set.
Description: Induction of mitochondrial membrane potential loss in human SH-SY5Y cells at 10 uM incubated for 10 mins in presence of 0.2 uM CsA by TMRE dye based assay
Data set [17] concerns SH-SY5Y. The settings on record: Homo sapiens, at 10 µM. This is another data set of the same source.
Description: Modulation of mitochondrial permeability transition pore opening in human SH-SY5Y cells assessed as reduction in calcein fluorescence at 10 uM in presence of 0.2 uM CsA by calcein-AM dye based confocal laser scanning microscopy
The subject of data set [18] is SH-SY5Y. The following applies: Homo sapiens, at 10 µM. The source holds these as a separate data set.
Description: Inhibition of SOC in human SH-SY5Y cells assessed as reduction in thapsigargin-induced Ca2+ influx at 10 uM pre-incubated for 5 mins with 0.2 uM CsA followed by compound addition by FURA-2AM dye based fluorescence assay

SMILES strings stand for the structures. Calls of active or inactive are those of the source. The calls are words filed in the database; no cut-off is given here.

Sequence of Sodium channel protein type 8 subunit alpha (Homo sapiens) (Q9UQD0 whole entry, looked up): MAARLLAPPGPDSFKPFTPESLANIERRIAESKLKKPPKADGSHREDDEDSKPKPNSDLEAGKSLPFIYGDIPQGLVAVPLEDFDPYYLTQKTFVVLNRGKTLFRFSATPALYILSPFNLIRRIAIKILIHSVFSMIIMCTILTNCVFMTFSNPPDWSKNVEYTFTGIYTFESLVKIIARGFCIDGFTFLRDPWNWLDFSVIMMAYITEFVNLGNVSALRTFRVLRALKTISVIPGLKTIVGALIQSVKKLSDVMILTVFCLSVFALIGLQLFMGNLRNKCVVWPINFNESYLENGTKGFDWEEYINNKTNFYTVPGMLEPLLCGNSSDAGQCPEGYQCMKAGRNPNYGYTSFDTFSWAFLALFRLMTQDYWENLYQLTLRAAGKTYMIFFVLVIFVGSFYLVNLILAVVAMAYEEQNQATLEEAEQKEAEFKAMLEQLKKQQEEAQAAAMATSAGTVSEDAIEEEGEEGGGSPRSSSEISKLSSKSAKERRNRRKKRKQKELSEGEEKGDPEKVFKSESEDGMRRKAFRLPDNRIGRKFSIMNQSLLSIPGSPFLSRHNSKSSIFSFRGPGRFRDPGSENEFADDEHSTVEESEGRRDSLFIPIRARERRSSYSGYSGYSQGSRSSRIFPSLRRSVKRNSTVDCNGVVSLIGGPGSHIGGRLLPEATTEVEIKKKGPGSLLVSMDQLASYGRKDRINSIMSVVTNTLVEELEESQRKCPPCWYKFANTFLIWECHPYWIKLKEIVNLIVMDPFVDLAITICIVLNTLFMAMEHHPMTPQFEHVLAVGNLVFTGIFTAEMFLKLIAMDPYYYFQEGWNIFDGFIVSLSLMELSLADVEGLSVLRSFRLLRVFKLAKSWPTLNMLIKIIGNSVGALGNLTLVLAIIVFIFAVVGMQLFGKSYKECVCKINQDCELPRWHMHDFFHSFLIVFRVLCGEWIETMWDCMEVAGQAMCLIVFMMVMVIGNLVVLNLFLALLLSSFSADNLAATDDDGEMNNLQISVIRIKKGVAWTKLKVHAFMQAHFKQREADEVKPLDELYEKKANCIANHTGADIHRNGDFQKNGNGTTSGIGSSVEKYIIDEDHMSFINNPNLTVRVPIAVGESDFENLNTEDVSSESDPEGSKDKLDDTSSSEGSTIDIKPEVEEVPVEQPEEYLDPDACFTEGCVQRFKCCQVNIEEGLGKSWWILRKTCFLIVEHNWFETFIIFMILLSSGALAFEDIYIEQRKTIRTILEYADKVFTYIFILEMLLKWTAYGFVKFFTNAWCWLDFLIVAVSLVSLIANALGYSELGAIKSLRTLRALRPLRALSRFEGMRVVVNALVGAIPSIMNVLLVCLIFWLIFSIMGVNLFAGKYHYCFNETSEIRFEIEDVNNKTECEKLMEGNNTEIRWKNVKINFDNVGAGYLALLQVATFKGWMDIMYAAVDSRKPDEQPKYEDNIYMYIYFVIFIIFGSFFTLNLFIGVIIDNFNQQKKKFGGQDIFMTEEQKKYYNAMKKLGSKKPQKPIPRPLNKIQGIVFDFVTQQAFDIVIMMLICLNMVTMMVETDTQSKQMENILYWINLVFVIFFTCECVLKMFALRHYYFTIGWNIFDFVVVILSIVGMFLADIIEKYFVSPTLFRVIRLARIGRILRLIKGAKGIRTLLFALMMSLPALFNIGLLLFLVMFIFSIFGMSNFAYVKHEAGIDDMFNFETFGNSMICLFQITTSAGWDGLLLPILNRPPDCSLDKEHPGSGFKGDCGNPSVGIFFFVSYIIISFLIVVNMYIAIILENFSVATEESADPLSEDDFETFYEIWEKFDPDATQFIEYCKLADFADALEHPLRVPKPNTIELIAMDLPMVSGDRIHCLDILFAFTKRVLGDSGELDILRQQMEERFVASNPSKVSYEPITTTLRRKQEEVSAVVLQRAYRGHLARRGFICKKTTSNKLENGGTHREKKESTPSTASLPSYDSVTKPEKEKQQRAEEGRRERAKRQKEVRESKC

Regarding `COc1ccc(CCCOC(Cn2ccnc2)c2ccc(OC)cc2)cc1` (centres undefined), the inhibition entry in data set [1] is “Active”.
In the case of `CC(C)=CCNC(=N)NCCC[C@H]1NC(=O)[C@H](Cc2ccccc2)NC(=O)[C@H](CC(=O)O)NC(=O)[C@H](CC(C)C)NC(=O)CNC(=O)[C@H]2CCCN2C(=O)[C@H](Cc2ccccc2)NC1=O`, the Activity result in data set [2] is “Non-toxic”; in data set [3] it was 42%. The outcome in data set [4], in [5], in data set [6] and in data set [7] was inactive. Moreover, the inhibition entry in data set [8] was “Dose-dependent effect”; in data set [9], 33%; in data set [12] it was 72%. Also, the inhibition entry in data set [10], in [16], in data set [17] and in [18] was “inactive” throughout. For the same compound, the inhibition entry in data set [11] and in [15] was “Active” in each case. Moreover, the inhibition at 10 µM in data set [13] is 36%; in [14] it was 30%.
With `N#CC(C#N)=NNc1ccc(OC(F)(F)F)cc1`, the inhibition at 10 µM in [13] is 68%; in [14], 20%. In data set [15], this compound had an inhibition of 51%. Further, the inhibition result in [16] and in data set [18] was “Active” throughout. For the same compound, in [17], the inhibition entry is “inactive”.

For orientation: inhibition means the relative decrease from the control value, in per cent.
